According to patent publication US9878999B2, “Proteasome chymotrypsin-like inhibition using PI-1833 analogs” (H. Lee Moffitt Cancer Center and Research Institute, Inc., priority 2011, dated 2018):
Like-named read-outs stand apart in the source and are kept apart here.

Molecular target: CT-L activity of purified 20S proteasome (Homo sapiens, UniProt P20618+P28074)
Assay: in vitro CT-L activity of purified 20S proteasome
Assay type: biochemical
[1] = Table 5, read-out: IC50 (μM) Chymotrypsin-like
[2] = Table 9, read-out: IC50 (μM) Chymotrypsin-like

## CCCCc1ccc(OCC(=O)N(Cc2nc(-c3cccnc3)no2)C(C)C)cc1 [drawing 159]
[1]
  IC50: 0.039 ± 0.011 µM

## CC(C)N(Cc1nc(-c2cccnc2)no1)C(=O)c1cc2ccccc2o1 [drawing 160]
[1]
  IC50: 0.379 ± 0.063 µM

## CC(C)N(Cc1nc(-c2cccnc2)no1)C(=O)COc1ccccc1 [drawing 161]
[1]
  IC50: 3.12 ± 1.11 µM

## Cc1ccc(O[C@@H](C)C(=O)N(Cc2nc(-c3cccnc3)no2)C(C)C)cc1 [drawing 162]
[1]
  IC50: 0.214 ± 0.053 µM

## Cc1ccc(O[C@H](C)C(=O)N(Cc2nc(-c3cccnc3)no2)C(C)C)cc1 [drawing 163]
[1]
  IC50: 7.52 ± 2.13 µM

## CCCCCc1ccc(OCC(=O)N(Cc2nc(-c3cccnc3)no2)C(C)C)cc1 [drawing 164]
[1]
  IC50: 0.121 ± 0.04 µM

## CCCCCCc1ccc(OCC(=O)N(Cc2nc(-c3cccnc3)no2)C(C)C)cc1 [drawing 165]
[1]
  IC50: 0.428 ± 0.038 µM

## CCCCc1ccc(OCC(=O)N(Cc2nc(-c3cnccn3)no2)C(C)C)cc1 [drawing 166]
[1]
  IC50: 0.107 ± 0.013 µM

## CCCc1ccc(OCC(=O)N(Cc2nc(-c3cnccn3)no2)C(C)C)cc1 [drawing 167]
[1]
  IC50: 0.105 ± 0.031 µM

## CCCc1ccc(OCC(=O)N(Cc2nc(-c3cncnc3)no2)C(C)C)cc1 [drawing 168]
[1]
  IC50: 0.032 ± 0.003 µM

## CC(C)N(Cc1nc(-c2cccnc2)no1)C(=O)COc1ccc(C2CCCCC2)cc1 [drawing 169]
[1]
  IC50: 1.36 ± 0.184 µM

## CC(C)N(Cc1nc(-c2cccnc2)no1)C(=O)COc1ccc(C(C)(C)C)cc1 [drawing 170]
[1]
  IC50: 65.9 ± 33.7 µM

## CC(C)c1ccc(OCC(=O)N(Cc2nc(-c3cccnc3)no2)C(C)C)cc1 [drawing 171]
[1]
  IC50: 0.436 ± 0.073 µM

## Cc1ccc(OCC(=O)N(Cc2nc(-c3ccc(C)cc3)no2)C2CC2)cc1 [drawing 172]
Table 5, @ 10 μM, read-out: Screening Results (% Inhibition @ 10 μM) Chymotrypsin-like
  inhibition at 10 µM: -8.36 ± 19%

## CC(C)Cc1ccc(OCC(=O)N(Cc2nc(-c3cccnc3)no2)C(C)C)cc1 [drawing 173]
[1]
  IC50: 0.14 ± 0.052 µM

## CCCc1ccc(OCC(=O)N(Cc2nc(-c3ncccn3)no2)C(C)C)cc1 [drawing 174]
[1]
  IC50: 1.27 ± 0.226 µM

## CC(C)N(Cc1nc(-c2ccccc2)no1)C(=O)CCc1ccc(C(F)(F)F)cc1 [drawing 180]
Table 8, 20S CT-L proteasome activity, read-out: IC50 (μM) CT-L
  IC50: 15.7 µM

## CC(C)N(Cc1nc(-c2ccccc2)no1)C(=O)CCc1ccc(C(F)(F)F)cc1 [drawing 183]
[2]
  IC50: 15.7 µM

## Cc1ccc(OCC(=O)N(C)Cc2nc(-c3ccc(C)cc3)no2)cc1 [drawing 186]
[2]
  IC50: 29.9 µM

## Cc1ccc(OCC(=O)N(Cc2nc(-c3ccc(C)cc3)no2)CC(C)C)cc1 [drawing 187]
[2]
  IC50: 2.37 ± 0.4 µM

## N-Isopropyl-N-((2-phenyloxazol-4-yl)methyl)-2-(p-tolyloxy)acetamide [SO3-023]
Table 4, read-out: IC50 (μM) Chymotrypsin-like activity
  IC50: 0.45 ± 0.18 µM
